PubChem BioAssay (NCI)
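Step 1: Grow cells in 96-well plates. Step 2: Expose to compound for 48 hours at 5 concentrations. Step 3: Interpolate endpoints linearly; if unreached, use highest concentration. Definition used: TGI = concentration required for complete inhibition of growth.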

How the values were obtained:
Assay in all cases: NCI tumour cell line growth inhibition, 48 h
A549 NSCLC = system: A549 NSCLC
EKVX NSCLC = system: EKVX NSCLC
HCT-116 colon = system: HCT-116 colon
HOP-62 NSCLC = system: HOP-62 NSCLC
HT29 colon = system: HT29 colon
KM12 colon = system: KM12 colon
LOX IMVI melanoma = system: LOX IMVI melanoma
MOLT-4 leukemia = system: MOLT-4 leukemia
OVCAR-3 ovarian = system: OVCAR-3 ovarian
RPMI-8226 leukemia = system: RPMI-8226 leukemia
SK-MEL-2 melanoma = system: SK-MEL-2 melanoma
SK-MEL-28 melanoma = system: SK-MEL-28 melanoma
SK-OV-3 ovarian = system: SK-OV-3 ovarian
SNB-19 CNS = system: SNB-19 CNS
SR leukemia = system: SR leukemia
U251 CNS = system: U251 CNS
UACC-62 melanoma = system: UACC-62 melanoma
MCF7 breast = system: MCF7 breast
MDA-MB-435 = system: MDA-MB-435
SF-295 CNS = system: SF-295 CNS

Row | SMILES | TGI (A549 NSCLC) [µM] | TGI (EKVX NSCLC) [µM] | TGI (HCT-116 colon) [µM] | TGI (HOP-62 NSCLC) [µM] | TGI (HT29 colon) [µM] | TGI (KM12 colon) [µM] | TGI (LOX IMVI melanoma) [µM] | TGI (MOLT-4 leukemia) [µM] | TGI (OVCAR-3 ovarian) [µM] | TGI (RPMI-8226 leukemia) [µM] | TGI (SK-MEL-2 melanoma) [µM] | TGI (SK-MEL-28 melanoma) [µM] | TGI (SK-OV-3 ovarian) [µM] | TGI (SNB-19 CNS) [µM] | TGI (SR leukemia) [µM] | TGI (U251 CNS) [µM] | TGI (UACC-62 melanoma) [µM] | TGI (MCF7 breast) [µM] | TGI (MDA-MB-435) [µM] | TGI (SF-295 CNS) [µM]
1 | Cc1ccc(/C(O)=C/c2nc3c(nc2NC24CC5CC(CC(C5)C2)C4)c(=O)oc2ccccc23)cc1 | > 100 | > 100 | > 100 | > 100 | > 100 | > 100 | > 100 | > 100 | > 100 | > 100 | > 100 | > 100 | > 100 | > 100 | > 100 | > 100 | > 100 | – | – | –
2 | Clc1ccc(OCc2nnc(CCCCCCCCc3nnc(COc4ccc(Cl)cc4Cl)n3Nc3ccccc3)n2Nc2ccccc2)c(Cl)c1 | 64.4 | > 68.3 | 25.1 | 18.2 | 35.8 | 25.6 | 34.3 | > 100 | 25.4 | 16.9 | 24.8 | 19 | 39.8 | > 61.9 | – | 27.1 | 15.7 | 45.6 | 19.5 | 17.3
3 | CCN1C(=O)C(=C/C=C/C=C2/N(C)c3ccccc3C2(C)C)C(=O)N(CC)C1=S | > 100 | > 100 | > 100 | > 100 | > 100 | > 100 | > 100 | – | > 100 | > 100 | > 100 | – | > 100 | > 100 | – | – | > 100 | > 100 | > 100 | > 100
4 | Nn1c(CCCCCCCCc2nnc(COc3ccc4ccccc4c3O)n2N)nnc1COc1ccc2ccccc2c1O | > 100 | > 100 | 29.3 | – | > 100 | 49.4 | – | > 100 | – | 99.2 | > 100 | > 100 | > 100 | > 100 | – | > 100 | > 100 | > 100 | > 100 | 98.1
5 | COC(=O)c1ccc(NC(=O)O/N=C(\Cl)C(C)C)cc1 | 43.2 | 10.9 | 17.2 | 32.9 | 29.4 | 30.2 | 4.02 | 6 | 4.17 | 4.47 | 31.5 | 10.1 | 31.7 | 31.8 | – | 30.9 | 27 | 19.1 | 25.5 | 33.3
6 | CCOC(=O)N1c2c(ccn2C)-c2ccn(C)c2N1C(=O)OCC | 39.4 | – | 29.4 | > 100 | 30.1 | 57.3 | 25.6 | 40.4 | 27.1 | 54.3 | 38.8 | – | 77.3 | – | 43.8 | – | 31.3 | – | – | 29.7
7 | C=C1C(=O)O[C@@H]2[C@@H]3O[C@@H](C[C@@H]13)[C@](C)(O)CC/C=C(\C)CCC[C@@H]2C | 34.3 | 32 | 21.2 | 30.5 | > 100 | 43.1 | 19.2 | > 100 | 25.8 | 20.6 | 27.7 | 33.3 | 34 | 29.8 | – | 22.8 | 25.4 | 22.1 | 24.9 | 44.7
8 | COc1c(OC(C)C)c(OC(C)C)c2oc(=O)n3c2c1C(c1ccccc1-n1c(C)ccc1C)C=C3 (stereo not drawn) | > 100 | 95.4 | > 100 | > 100 | > 100 | > 100 | 59 | > 100 | > 100 | > 100 | > 100 | > 100 | > 100 | > 100 | – | > 100 | > 100 | > 100 | > 100 | > 100
9 | C/C(=N\n1c(Cc2ccccc2)n[nH]c1=O)c1ccccc1 | > 100 | > 100 | > 100 | – | > 100 | > 100 | > 100 | > 100 | – | > 100 | > 100 | > 100 | – | > 100 | – | > 100 | > 100 | > 100 | > 100 | –
10 | Cn1c(=O)n2n(c1=O)C(S(=O)(=O)c1ccccc1)C2 (stereo not drawn) | > 100 | > 100 | > 100 | > 100 | > 100 | > 100 | > 100 | > 100 | > 100 | > 100 | > 100 | > 100 | > 100 | > 100 | – | > 100 | > 100 | > 100 | > 100 | > 100
11 | COc1ccc2cc3[nH]c(=O)cc(O)c3cc2c1OC | > 100 | > 100 | > 100 | > 100 | > 100 | > 100 | > 100 | > 100 | > 100 | > 100 | > 100 | > 100 | – | > 100 | > 100 | > 100 | > 100 | – | – | > 100
12 | Cc1cccc(C)c1NC(=O)C(=O)CC(=O)/C=C/c1ccccc1 | > 100 | > 100 | > 100 | > 100 | > 100 | > 100 | > 100 | > 100 | > 100 | > 100 | > 100 | > 100 | > 100 | > 100 | – | > 100 | > 100 | > 100 | > 100 | > 100
13 | CC(=O)OC[C@]1(C)CCCC2(C)C1CCC1C=C(C)[C@H]3CCC12C3 (stereo partly drawn) | > 100 | – | > 100 | > 100 | > 100 | > 100 | > 100 | > 100 | > 100 | > 100 | – | > 100 | > 100 | > 100 | > 100 | > 100 | > 100 | – | – | > 100
14 | COc1ccc(P2(=S)Oc3ccccc3-c3ccccc3O2)cc1 | > 54.9 | > 100 | > 38.7 | > 100 | – | > 100 | > 100 | > 100 | 0.493 | – | > 100 | > 100 | – | > 100 | – | > 100 | > 100 | > 40.4 | – | > 100
15 | CC(=O)[C@@H]1C/C(=C\OCc2ccccc2)O[C@H]1C | > 100 | > 100 | > 100 | > 100 | > 100 | > 100 | > 100 | > 100 | > 100 | > 100 | – | > 100 | > 100 | > 100 | – | > 100 | – | – | > 100 | > 100
16 | Cc1nc(C(N)=S)sc1C(=O)CC(=O)C(=O)Nc1ccccc1[N+](=O)[O-] | > 100 | > 100 | > 100 | > 100 | > 100 | > 100 | > 100 | > 100 | > 100 | > 100 | > 100 | > 100 | > 100 | > 100 | > 100 | > 100 | > 100 | – | – | > 100
17 | C/C=C1\C=C(OC)CN(CCc2c[nH]c3ccccc23)C1 | > 100 | > 100 | > 100 | > 100 | > 100 | > 100 | > 100 | > 100 | > 100 | > 100 | > 100 | – | – | > 100 | > 100 | – | > 100 | – | – | > 100
18 | Cc1cc(C)c(S(=O)(=O)N2CCCN(S(=O)(=O)c3c(C)cc(C)cc3C)OCCCO2)c(C)c1 | > 100 | > 100 | > 100 | > 100 | > 100 | > 100 | > 100 | > 100 | > 100 | – | > 100 | > 100 | > 100 | > 100 | – | > 100 | > 100 | > 100 | > 100 | > 100
19 | O=C1Cc2c([nH]c3ccccc23)-c2ccccc2N1 | > 100 | > 100 | 31.9 | 97.7 | 69 | 45.2 | 37.7 | 94.3 | 68.2 | > 100 | > 100 | > 100 | > 100 | > 100 | – | > 100 | – | – | – | > 100
20 | CN=c1c2c(c3[nH]c4ccccc4c4cnc1c34)NCCC2=O | > 10 | > 10 | > 10 | > 10 | > 10 | > 10 | – | > 10 | > 10 | > 10 | > 10 | > 10 | > 10 | > 10 | – | > 10 | – | > 10 | > 10 | > 10
21 | CC1(C)CC2=C(Sc3ccccc3N2)C(=O)C1C(=O)C(=O)Nc1cccc([N+](=O)[O-])c1 (stereo not drawn) | > 100 | > 100 | > 100 | – | > 100 | > 100 | > 100 | > 100 | > 100 | > 100 | > 100 | > 100 | > 100 | > 100 | – | > 100 | > 100 | > 100 | > 100 | > 100
